{
  "source": "PubChem BioAssay AID1221",
  "about": "(NMMLSC, 2008)",
  "note": "Activity calls are given as the source filed them.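 The calls were made as follows: active = summed score of at least 50 from binding left at 10 µM, EC50 band and curve drop size; inactive = the rest.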",
  "data": [
    {"molecular_target": "Estrogen receptor beta (Homo sapiens) (UniProt Q92731)", "sequence (Q92731 whole entry, looked up)": "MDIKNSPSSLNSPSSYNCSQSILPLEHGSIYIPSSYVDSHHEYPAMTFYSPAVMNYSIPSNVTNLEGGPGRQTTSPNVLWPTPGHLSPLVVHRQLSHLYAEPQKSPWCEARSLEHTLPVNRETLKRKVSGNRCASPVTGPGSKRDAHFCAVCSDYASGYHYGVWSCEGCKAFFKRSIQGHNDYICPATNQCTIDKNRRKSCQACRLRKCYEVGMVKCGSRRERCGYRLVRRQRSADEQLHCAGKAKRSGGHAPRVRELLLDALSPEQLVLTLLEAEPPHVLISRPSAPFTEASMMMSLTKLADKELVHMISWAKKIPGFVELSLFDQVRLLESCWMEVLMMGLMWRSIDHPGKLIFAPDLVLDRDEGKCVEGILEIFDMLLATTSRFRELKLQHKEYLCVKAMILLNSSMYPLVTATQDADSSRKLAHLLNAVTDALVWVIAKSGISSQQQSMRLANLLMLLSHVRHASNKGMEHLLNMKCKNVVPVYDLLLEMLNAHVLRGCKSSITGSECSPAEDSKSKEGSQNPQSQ", "assay": "ERbeta binders displacing fluorescent estradiol, dose response, cell-based, Cos7 ERbeta-GFP, E2-Alexa633, flow cytometry (AID 1221)", "details": "E2-Alexa633 competitive binding", "values": [
      {"smiles": "Oc1ccc(-c2nc3ccc4ccccc4c3c3c2CCC3)cc1O", "EC50": "> 10 µM (inactive)"}
    ]},
    {"molecular_target": "Estrogen receptor beta (Homo sapiens) (UniProt Q92731)", "assay": "ERbeta binders displacing fluorescent estradiol, dose response, cell-based, Cos7 ERbeta-GFP, E2-Alexa633, flow cytometry (AID 1221)", "details": "E2-Alexa633 competitive binding, at 10 µM (top of the series)", "values": [
      {"smiles": "CCn1c(=NC(=O)c2ccc(N3C(=O)CCC3=O)cc2)sc2c(OC)ccc(OC)c21", "percent ligand binding remaining": "inactive"},
      {"smiles": "Cc1cc(C(=O)Nc2sc3c(c2C#N)CCC3)no1", "percent ligand binding remaining": "inactive"},
      {"smiles": "Cc1cc(C)c2c(c1)NC(c1cc3c(cc1Br)OCO3)C1CC=CC21", "note": "(stereo not drawn)", "percent ligand binding remaining": "inactive"},
      {"smiles": "Cc1cc([N+](=O)[O-])c2c(c1C)C1C=CCC1C(c1ccccn1)N2", "note": "(stereo not drawn)", "percent ligand binding remaining": "inactive"},
      {"smiles": "CC(=O)Nc1ccc(OC(=O)CC2SC(=O)NC2=O)cc1", "note": "(stereo not drawn)", "percent ligand binding remaining": "inactive"},
      {"smiles": "COc1ccc(NC(=O)C(c2ccccc2)N(C)C(=O)c2ccc(=O)[nH]c2)cc1", "note": "(stereo not drawn)", "percent ligand binding remaining": "inactive"},
      {"smiles": "C/C=C(/C(=C/C)c1ccc(O)cc1)c1ccc(O)cc1", "percent ligand binding remaining": "45.1%"},
      {"smiles": "CCc1nc2sc3ccccc3c(=O)c2c(=O)n1Cc1ccco1", "percent ligand binding remaining": "inactive"},
      {"smiles": "N=C1C(c2nc3ccccc3[nH]2)=C(O)CN1c1ccc(CC(=O)O)cc1", "percent ligand binding remaining": "inactive"},
      {"smiles": "O=C(Cc1cccs1)Nc1ccc(S(=O)(=O)Nc2ncccn2)cc1", "percent ligand binding remaining": "inactive"},
      {"smiles": "CC(=O)c1ccc2c(c1)C1C=CCC1C(c1ccc(S(=O)(=O)N3CCOCC3)cc1)N2", "note": "(stereo not drawn)", "percent ligand binding remaining": "inactive"},
      {"smiles": "Cc1nn(-c2ccccc2)c(/N=C/c2ccc(O)cc2)c1-c1ccccc1", "percent ligand binding remaining": "inactive"},
      {"smiles": "O=C1NC(c2ccc(Br)cc2)Nc2sc3c(c21)CCC3", "note": "(stereo not drawn)", "percent ligand binding remaining": "inactive"},
      {"smiles": "COc1nc(-c2ccc(Cl)cc2)ccc1-c1noc(-c2ccco2)n1", "percent ligand binding remaining": "inactive"},
      {"smiles": "Oc1ccc(-c2nc(-c3ccc(O)c(O)c3)cs2)cc1", "percent ligand binding remaining": "inactive"},
      {"smiles": "Cc1nnc(SCC(=O)NC(=O)NCc2ccco2)n1Cc1ccccc1", "percent ligand binding remaining": "inactive"},
      {"smiles": "CCNC(=O)c1ccc2c(c1)C1C3CCC(C3)C1C(c1ccccc1)N2", "note": "(stereo not drawn)", "percent ligand binding remaining": "inactive"},
      {"smiles": "COc1cccc(NS(=O)(=O)c2ccc3c(c2)C2C=CCC2C(c2ccc(C(=O)O)cc2)N3)c1", "note": "(stereo not drawn)", "percent ligand binding remaining": "inactive"},
      {"smiles": "Brc1cc2c(cc1C1Nc3ccccc3C3C=CCC31)OCO2", "note": "(stereo not drawn)", "percent ligand binding remaining": "inactive"},
      {"smiles": "CCCCCCNC(=O)c1cc(-c2ccco2)nc2ccccc12", "percent ligand binding remaining": "inactive"},
      {"smiles": "Cc1cc(C)cc(OCC(=O)Nc2ccc(N3CCCC3)cc2)c1", "percent ligand binding remaining": "inactive"},
      {"smiles": "C[C@H]1CCC[C@@H](O)CCC/C=C/c2cc(O)cc(O)c2C(=O)O1", "percent ligand binding remaining": "inactive"},
      {"smiles": "COc1cccc(C2Nc3c(F)cc(Br)cc3C3C=CCC32)c1OC", "note": "(stereo not drawn)", "percent ligand binding remaining": "inactive"},
      {"smiles": "COc1ccc(C(=O)N/N=C(\\C)c2ccc3c(c2)C2C=CCC2C(c2ccccc2)N3)cc1", "note": "(stereo not drawn)", "percent ligand binding remaining": "32.7%"},
      {"smiles": "Cn1ccnc1SCC(=O)Nc1ccc2nc(SCC(=O)NC3CC3)sc2c1", "percent ligand binding remaining": "inactive"},
      {"smiles": "O=C(O)c1ccc2c(c1)C1C(Cl)C(Sc3ccccc3[N+](=O)[O-])CC1C(c1cccc([N+](=O)[O-])c1)N2", "note": "(stereo not drawn)", "percent ligand binding remaining": "inactive"},
      {"smiles": "COc1ccc(/C=N/NC(=O)c2nc(-c3ccccc3)cc(-c3ccccc3)n2)cc1O", "percent ligand binding remaining": "inactive"},
      {"smiles": "Cc1ccc(-n2c(=O)c(C#N)cc3c(=O)n4cccc(C)c4nc32)cc1", "percent ligand binding remaining": "inactive"},
      {"smiles": "C[C@]12CC[C@@H]3c4ccc(O)cc4[C@@H](O)C[C@H]3[C@@H]1CC[C@@H]2O", "percent ligand binding remaining": "inactive"},
      {"smiles": "O=C1/C(=C\\c2ccco2)SC(=S)N1c1ccc(O)cc1", "percent ligand binding remaining": "inactive"},
      {"smiles": "O=S(=O)(NCCc1csc(-c2cccnc2)n1)c1ccc(Cl)s1", "percent ligand binding remaining": "inactive"},
      {"smiles": "CCC(=O)Oc1ccc(/C(CC)=C(\\CC)c2ccc(OC(=O)CC)cc2)cc1", "percent ligand binding remaining": "32.1%"}
    ]}
  ]
}
